Reference: patent US7388006B2, “Non-steroidal progesting” (Bayer Schering Pharma AG, priority 2002, dated 2008)

Columns and labels:
PR-A = assay type: cell-based; settings: PR-A efficacy minus PR-B efficacy
Protocol: The method for screening for PR isoform-specific progestins according to the present invention is carried out with first and second SK-N-MC cells stably transfected with a plasmid expressing the HPR-A (first cells) or the hPR-B (second cells) and the LUC reporter gene linked to the hormonally responsive MTV promoter.
The cells are cultured in Minimum Essential Medium with Earl's Salts (S-MEM, without L-glutamine; Gibco BRL, no. 21090-022), supplemented with 10% fetal calf serum (FCS), penicillin 100U/streptomycin 100 μg/ml (Biochrom, no. A2213), L-glutamine 4 mmol/l (Gibco BRL, no. 25030-024), sodium pyruvate 1 mmol/l (Biochrom, no. L0473) and 1×non-essential amino acids (Biochrom, no. K0293) at a temperature of 37° C. and in an atmosphere of 5% carbon dioxide.
For the transcription assay, the cells are seeded onto 96-well dishes (2×10^4 cells/dish) and cultured in a medium as described above, with the exception that the FCS is replaced by a 3% charcoal stripped FCS. 48 hours later, cells are contacted with prediluted test compounds. For determination of agonistic activity, cells are cultured in the presence of 6 increasing concentrations (10^−6 to 10^−11 mol/l) of test progestins. As a positive control for reporter gene induction cells are treated with 10^−6 to 10^−11 mol/l R5020 (promegestone). As a negative control for reporter gene induction, cells are cultured in 1% ethanol.
After incubation with test progestins for 24 hours, the medium is removed and cells are lysed with 20 μl of lysis buffer (Luciferase Assay System E 153A; Promega) and under agitation of the plate for 101 min. After addition of 30 μl of luciferase reagent (Luciferase Assay System E 151A+152A; Promega) within 30 seconds per plate, the activity of the luciferase reporter gene product is determined in the cell lysates by means of a Microlite ML 3000 microtiter plate luminometer (Dynatech) in cycle mode.
Evaluation of the response gives the efficacy [%], and evaluation of the EC50s values gives the potency [nM]. Calculation of the agonistic activity is conducted as follows:
The LUC activity [%] for the measured data points is calculated as follows:
[formula] wherein CI=100% stimulation (R5020, 10^−7 mol/l) and CO=0% stimulation (ethanol, 1%).
Thus, the efficacy [%] is calculated according to: […]
The potency [nM], i.e. the EC50, is determined graphically.

[1] = system: pregnancy in ovariectomized rats; assay: Pregnancy maintenance test in rat; assay type: in vivo; settings: ovariectomized pregnant rats, with estrone
Excerpt: In rats, castration induces termination of pregnancy. Progestins (combined with estrogens) are capable of maintaining pregnancy in castrated animals. However, the degree of pregnancy maintenance in castrated rats is optimal only in a defined dose range. Therefore, higher as well as lower doses generally induce a weaker effect. Accompanying treatment with defined doses of estrone (E1) increases the pregnancy maintaining effect of progestins.
Pregnant rats (Wistar Han, SPF) of 190 to 220 g (5 to 8 animals per dose) are ovariectomized on day 8 of pregnancy, 2 hours after the first substance administration. From day 8 to day 14, rats are daily treated with test progestin in combination with a standard dose of E1. One day later, animals are killed with carbon dioxide. For each animal, the number of living and dead fetuses is determined according to the heartbeat of the embryos. In case of empty uteri, the number of implantation sites is determined by means of staining with a 10% ammonium sulfide solution.
S.c. (subcutaneous) application: The test progestin is dissolved in benzyl benzoate/castor oil (1+4 v/v), and the daily dose is administered in a volume of 1 ml/kg body weight.
P.o. (peroral) application: The test progestin is suspended in a carrier liquid (85 mg Myrj^R in 100 ml 0.9% w/v NaCl solution), and the daily dose is administered in a volume of 2 ml/kg body weight.
I.p. (intraperitoneal) application: The test progestin is dissolved in propylene glycol and charged in miniature osmotic pumps (type 2001, 1.0 μl/h, 7 days), which are placed in the abdominal cavity of the rat.
The standard dose of estrone is 0.005 mg/kg body weight s.c. and is dissolved in benzyl benzoate/castor oil ([…]).
It is determined the pregnancy maintenance per animal [%], the pregnancy maintenance per dose (median of single values) and the EC50 (dose, at which pregnancy is maintained in 50% of the animals; 100% corresponds to control animals that are not ovariectomized). The results of the test are further discussed below in c).

rat mammary epithelium = assay: MIB-5 immunohistochemistry, proliferation of the mammary epithelium; assay type: in vivo; settings: 0.3 mg/kg/d, FIG. 2
Protocol: In order to determine the effects of test progestins according to the present invention, in particular compound ((+)-1), in mammary gland differentiation and proliferation, premature female rats (Wistar Han, SPF) are ovariectomized at the age of 21 days, 4 to 6 days before treatment start. The animals are treated for 6 days with standard estrogen (estrone (E1), 70 μg/kg) and the test progestin ((+)-1) (application volume: 0.1 ml/50 g body weight; vehicle: benzylbenzoate/castor oil (1+4 v/v); subcutaneous). Control groups are e.g.: vehicle, estrone without progestin, estradiol together with a known progestin, e.g. R5020 (promegestone). After the 6-day treatment the animals are killed with carbon dioxide.
For the whole mount staining, animals are shaved in the left abdominal inguinal mammary region, which is cut from the body together with the skin. For the histological/immunohistochemical analyses the right abdominal inguinal mammary gland is cut from the body together with the connective-tissue adhered thereto and fixed in 3.7% formalin in PBS (phosphate buffer saline; without Ca^2+/Mg^2+).
For a more detailed evaluation of the proliferation of the mammary epithelium, cells are stained with the proliferation marker MIB-5 as follows (cf. FIG. 2): Mammary glands are fixed in 4% formaldehyde/PBS for 24 h and embedded in paraffm. 4 μm sections are spread on slides, deparaffinized, treated with microwaves for 10 min. in citrate buffer pH 6.0 and rinsed with PBS. Slides are then blocked with 3% H2O2/methanol for 15 min., Blockingkit (Vektor, no. SP-2001) for 10 min. and rat serum (Sigma, no. S-7648) diluted 1:2 in PBS for 30 min to reduce nonspecific staining and rinsed in PBS. Slides are incubated for 1 hour with monoclonal antibody MIB-5 (Dianova, no. Dia-5055), which is specific for the rat Ki-67 antigen (1:200 diluted in PBS/0.2% BSA). […]
In order to characterize a test compound, the percentage of MIB-5 stained mammary epithelium cells is determined. […]

Row | SMILES | Δ agonism efficacies (A-B) (PR-A) | other results
1 | Cc1noc(=O)c2ccc(NC(=O)C(O)(CC3(c4cccc(C(F)(F)F)c4F)CC3)C(F)(F)F)cc12 (single isomer, unassigned; (+)) [((+)-2), (+)-6-{2-hydroxy-3-[1-(2-fluoro-3-trifluoromethylphenyl)-cyclopropyl]-2-trifluoro-methyl-propionylamino}-4-methyl-2,3-benzoxazin-1-one] | 32 | 
2 | Cc1noc(=O)c2ccc(NC(=O)C(C)(O)CC3(c4cccc(C(F)(F)F)c4)CC3)cc12 (single isomer, unassigned; (+)) [((+)-3), (+)-6-{2-hydroxy-3-[1-(3-trifluoromethylphenyl)-cyclopropyl]-2-methyl-propionylamino}-4-methyl-2,3-benzoxazin-1-one] | 23 | 
3 | O=C1OCc2cc(NC(=O)C(O)(CC3(c4cccc(C(F)(F)F)c4F)CC3)C(F)(F)F)ccc21 (single isomer, unassigned; (+)) [((+)-4), (+)-5-{2-hydroxy-3-[1-(2-fluoro-3-trifluoromethylphenyl)-cyclopropyl]-2-trifluoromethyl-propionylamino}-phthalide] | 18 | 
4 | Cc1noc(=O)c2ccc(NC(=O)C(C)(O)CC3(c4cccc(C(F)(F)F)c4)CC3)cc12 (single isomer, unassigned; (-)) [((−)-3), (−)-6-{2-Hydroxy-3-[1-(3-trifluoromethylphenyl)-cyclopropyl]-2-methyl-propionylamino}-4-methyl-2,3-benzoxazin-1-one] |  | melting point: 129 to 130 °C
5 | CCC(=O)[C@@]1(C)CC[C@H]2[C@@H]3CCC4=CC(=O)CCC4=C3CC[C@@]21C [R5020, promegestone, reference compound] |  | Maintenance of pregnancy (rat) [EC50] [1]: 0.1 mg/kg/day; MIB-5 positive cells (rat mammary epithelium): ~42%
